Structures can show the parent of a compound that is named as a salt.
How the values were obtained:
Assay type in all cases: biochemical
[1] = biological target: T1, Aβ1-40 or Aβ1-42 SDS-resistant polymers (Homo sapiens, UniProt P05067); assay: Dissolution of in vitro Cu^2+-induced SDS-resistant Aβ polymers
T1 construct: purchased W. Keck Laboratory, Yale; host or cells: chemical synthesis

[2] = Metal reduction assay, Fe^3+ to Fe^2+; details: 10 μM Fe^3+, PBS pH 7.4, 1 hr 37° C.
Protocol: (§1) The metal reduction assay was performed using a 96-well microtiter plate (Costar) based upon a modification of established protocols (Landers, J. W., et al., Amer. Clin. Path. 29:590 (1958); Landers, J. W., et al., Clinica Chimica Acta 3:329 (1958)). Polypeptides (10 μM) or Vitamin C (100 μM), metal ions (10 μM, Fe(NO3)3 or Cu(NO3)2), and reduced metal ion indicators, bathophenanthrolinedisulfonic acid (BP, for Fe^2+, Sigma, 200 μM) or bathocuproinedisulfonic acid (BC, for Cu^+, Sigma, 200 μM), were coincubated in phosphate buffered saline (PBS), pH 7.4, for 1 hr at 37° C. The metal ion solutions were prepared by direct dilution in the buffer from their aqueous stocks purchased from National Institute of Standards and Technology (NIST). Absorbances were then measured at 536 mn (Fe^2+-BP complex) and 483 nm (Cu^+-BC complex), respectively, using a 96-well plate reader (SPECTRAmax 250, Molecular Devices, CA). In control samples, both metal ion and indicator were present to determine the background buffer signal. As a further control, both metal ion and peptide were present in the absence of indicator to estimate the contribution of light scattering due to turbidity to the absorbance reading at these wavelengths. The net absorbances (ΔA) at 536 nm or 483 nm were obtained by deducting the absorbances from these controls from the absorbances generated by the peptide and metal in the presence of the respective indicator.
The concentrations of reduced metal ions (Fe^2+ or Cu^+) were quantified based on the formula: Fe^2+ or Cu^+ (˜M)=A*10^6/(L*M), where L is the measured equivalent vertical pathlength for a well of 300 μL volume as described in the instrument's specifications manual (0.856 cm for Fe^2+; 1.049 cm for Cu^+); M is the known molecular absorbance (M^−1 cm^−1) which is 7124 (for Fe^2+-BP complex) or 2762 (for Cu^+-BC complex).

[3] = Metal reduction assay, Cu^2+ to Cu^+
Protocol: Aβ (10 μM in PBS, pH 7.4 or 6.8, as shown) was incubated for 30 minutes (37° C.) in the presence of Cu^2+10 μM ±Zn^2+ 10 μM). […] levels (n=3, ±SD) were assayed against a standard curve.
as §1, with “Polypeptides” for “The metal reduction assay was performed using a 96-well microtiter plate (Costar) based upon a modification of established protocols (Landers, J. W., et al., Amer. Clin. Path. 29:590 (1958); Landers, J. W., et al., Clinica Chimica Acta 3:329 (1958)). Polypeptides”, “Absorbances were then measured at 536 mn (Fe^2+-BP complex) and 483 nm (Cu^+-BC complex), respectively, using a 96-well plate reader (SPECTRAmax 250, Molecular Devices, CA).” left out

Aβ1-42 = Aβ1-42 (Homo sapiens, UniProt P05067); assay: Effect of metal chelators on H2O2 production from Aβ1-42; details: 1 μM Cu^2+; chelator 200 μM
Sequence of Aβ1-42 (P05067 672-713 limits assumed): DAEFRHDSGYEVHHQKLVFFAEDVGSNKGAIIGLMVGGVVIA

T1 sequence (P05067 672-713, change not shown): as the sequence (P05067 672-713 limits assumed) above

| disruption of SDS-resistant polymers ([1]; 4.5 M) | disruption of SDS-resistant polymers ([1]; 9M) | Compound | other results |
| --- | --- | --- | --- |
| did not disrupt | only slightly | N=C(N)N [guanidine HCl] | – |
| – | – | insulin: histidine-containing peptide that can bind copper and zinc | reduction of available Fe^3+ [2]: did not significantly facilitate the reduction of Fe^3+; reduction of available Cu^2+ ([3]; 10 μM Cu^2+, PBS pH 7.4, 1 hr 37° C.): 10%; Cu^2+ reduction ([3]; 10 μM, PBS, 30 minutes 37° C., Cu^2+ 10 μM): no Cu^2+ reduction |
| did not disrupt | only slightly | NC(N)=O [Urea, urea] | – |
| – | – | O=S(=O)(O)c1ccc(-c2ccnc3c2ccc2c(-c4ccc(S(=O)(=O)O)cc4)ccnc23)cc1 [BP, bathophenanthrolinedisulfonic acid] | effect on H2O2 formation by Aβ1-42 (Aβ1-42): inhibited H2O2 formation |
